The text below walks through data of US4406879A, “Phthalazinol preparation” (Nippon Kayaku Kabushiki Kaisha, priority 1979, dated 1983).

≈ marks a conversion by molar mass, not a printed value.

For orientation: solubility means the concentration that dissolves in the medium under given conditions.

Data set [1] is described as follows: Oral absorption and blood content of Phthalazinol (first pass effect). The class given is in vivo.
Another data set relates to alcohol dehydrogenase. Nature of the data set: Metabolism of Phthalazinol with alcohol dehydrogenase in the living body. The class given is in vivo. The conditions noted are these: before it arrives at the blood circulation system.
Data set [2] can be described thus: Water-solubility and wettability of Phthalazinol. Type of data set: physicochemical.

As to `CCOC(=O)c1c(C)cc2c(CO)n[nH]c(=O)c2c1C` [Phthalazinol, 6,8-Dimethyl-7-ethoxycarbonyl-4-hydroxymethyl-1-phthalazone], in data set [1] (Phthalazinol subjected to the tests at present), the absorption velocity entry was “low absorption velocity”. For the same compound, the Fa in data set [1] (in vivo, po, administered orally) is approximately 100%. Further, the “actual Phthalazinol content of the blood relative to the theoretical value” in data set [1] (theoretical value assumes no metabolism and complete absorption) is reported as “several tenths”. Further, the “metabolism (4-hydroxymethyl converted into inactive 4-carboxyl group)” value with alcohol dehydrogenase was “readily metabolized”. In addition, the wettability with water result in data set [2] is reported as “low wettability”. In data set [2] (water at 25° C.), this compound yielded a solubility of approximately 200 µg/mL (≈ 724 µM).
